Data set [1] relates to MJ. Nature of the data set: CTCL cytotoxicity, 72 hours. As to conditions: MJ cells. It is filed as cell-based. How it is done:
MJ and HuT78 cells were grown in IMDM 20% FBS, and HH cells were grown in RPMI 10% FBS.

The subject of data set [2] is Loucy. Nature of the data set: T-ALL growth inhibition. Conditions: Loucy ALL cells, various concentrations. Format: cell-based, human. How it is done: To further explore the individual contributions of the varying PI3K isoforms on T-ALL cell growth, Loucy ALL cells were treated with doxorubicin and various PI3K inhibitors as shown in FIG. 32 at various concentrations as denoted in the figure.

Data set [3] relates to OPM-2. As to conditions: in combination with Compound 292. How it is done:
(§1) The method is described as follows. Cells are thawed from a liquid nitrogen preserved state. Once cells have been expanded and divide at their expected doubling times, screening begins. Cells are seeded in growth media in either black 1536-well or 384-well tissue culture treated plates. […] These Tzero (T0) plates are read using ultra-sensitive luminescence on Envision plate readers (Perkin Elmer). […] All data points are collected via automated processes, quality controlled and analyzed using Zalicus software.
(§2) I ranges from 0% (when T=V) to 100% (when T=0). […] The measure of effect in the experiment can be the inhibition of cellular response relative to the untreated level (vehicle alone). For untreated vehicle and treated levels V and T, a fractional inhibition 1=1−T/V is calculated. The inhibition ranges from 0% at the untreated level to 100% when T=0 Inhibition levels are negative for agents that actually increase levels. Other effect measures, such as an activity ratio r=T/V may be more appropriate for some assays. When activity ratios (e.g, fold increase over […] control) are being used, the effect can be measured using an induction I=1n(T/V). With this definition, all effect expressions are the same as for inhibition.
(§3) Growth Inhibition (GI) is used as a measure of cell viability. […] A GI reading of 100% represents complete growth inhibition-T72 compound-treated and T0 vehicle signals are matched. […] A GI reading of 200% represents complete death of all cells in the culture well. Compounds reaching an activity plateau of GI 200% are considered cytotoxic. GI is calculated by applying the following test and equation: […]
(§4) Combination analysis data were collected in a 6×6 dose matrix. Synergy is calculated by comparing a combination's response to those of its single compound, against the drug-with-itself dose-additive reference model. Deviations from dose additivity may be assessed visually on an isobologram or numerically with a Combination Index (CI). […] Additive effect is CI=1.0. […] Antagonistic effect is CI>1.0.
(§5) To measure combination effects in excess of Loewe additivity, a scalar measure to characterize the strength of synergistic interaction termed the Synergy Score is devised. The Synergy Score is calculated as: […]
(§6) The fractional inhibition for each component agent and combination point in the matrix is calculated relative to the median of all vehicle-treated control wells. The Synergy Score equation integrates the experimentally-observed activity volume at each point in the matrix in excess of a model surface numerically derived from the activity of the component agents using the Loewe model for additivity. Additional terms in the Synergy Score equation (above) are used to normalize for various dilution factors used for individual agents and to allow for comparison of synergy scores across an entire experiment. The inclusion of positive inhibition gating or an Idata multiplier removes noise near the zero effect level, and biases results for synergistic interactions at that occur at high activity levels.
(§7) Loewe Volume (Loewe Vol) is used to assess the overall magnitude of the combination interaction in excess of the Loewe additivity model. Loewe Volume is particularly useful when distinguishing synergistic increases in a phenotypic activity (positive Loewe Volume) versus synergistic antagonisms (negative Loewe Volume). […] This model defines additivity as a non-synergistic combination interaction where the combination dose matrix surface should be indistinguishable from either drug crossed with itself.

In data set [4] the test system is KARPAS-299. As to conditions: in combination with Compound 292. How it is done: as §1, §2, §3, §4, §5, §6, §7
For data set [5], the system named is U-2932. As to conditions: in combination with Compound 292. How it is done: as §1, §2, §3, §4, §5, §6, §7
In data set [6] the test system is OCI-LY3. As to conditions: in combination with Compound 292. How it is done: as §1, §2, §3, §4, §5, §6, §7
Data set [7] relates to GRANTA-519. As to conditions: in combination with Compound 292. How it is done: as §1, §2, §3, §4, §5, §6, §7
The test system of data set [8] is NCI-H929. As to conditions: in combination with Compound 292. How it is done:
as §1, §2, §3, §4, §5, §6, §7

In data set [9] the test system is HH. As to conditions: in combination with Compound 292. How it is done:
as §1, §2, §3, §4, §5, §6, §7

For data set [10], the system named is Mino. Conditions: in combination with Compound 292. How it is done: as §1, §2, §3, §4, §5, §6, §7
Data set [11] relates to DOHH-2. As to conditions: in combination with Compound 292. How it is done:
as §1, §2, §3, §4, §5, §6, §7

In data set [12] the test system is OCI-Ly7. As to conditions: in combination with Compound 292. How it is done:
as §1, §2, §3, §4, §5, §6, §7

Data set [13] concerns Jeko-1. As to conditions: in combination with Compound 292. How it is done:
as §1, §2, §3, §4, §5, §6, §7

Data set [14] deals with SU-DHL-4-epst. As to conditions: in combination with Compound 292. How it is done:
as §1, §2, §3, §4, §5, §6, §7

The subject of data set [15] is TMD8. Conditions: in combination with Compound 292. How it is done: as §1, §2, §3, §4, §5, §6, §7
Data set [16] concerns KARPAS-422. As to conditions: in combination with Compound 292. How it is done: as §1, §2, §3, §4, §5, §6, §7
Data set [17] relates to SU-DHL-10-epst. As to conditions: in combination with Compound 292. How it is done:
as §1, §2, §3, §4, §5, §6, §7

The subject of data set [18] is WSU-NHL. As to conditions: in combination with Compound 292. How it is done: as §1, §2, §3, §4, §5, §6, §7
Data set [19] has as its system Farage. As to conditions: in combination with Compound 292. How it is done:
as §1, §2, §3, §4, §5, §6, §7

Data set [20] concerns HBL-1. Conditions: in combination with Compound 292. How it is done: as §1, §2, §3, §4, §5, §6, §7
For data set [21], the system named is RL. Nature of the data set: Combination with BTK inhibitor, 72 h ATPLite, 6x6 dose matrix (follicular lymphoma). It is filed as cell-based. As to conditions: in combination with Compound 292. How it is done: as §1, §2, §3, §4, §5, §6, §7
Data set [22] deals with phospho-BTK in SU-DHL-4. Nature of the data set: phospho-BTK in DLBCL cells. Format: cell-based.
For data set [23], the system named is SU-DHL-4 GCB DLBCL cell line. Description: Cell viability with Compound 292, ibrutinib or combination, 72 h CellTiter Glo. It is filed as cell-based. Conditions: SU-DHL-4, 72 hours. On the technique in general: In ATP-based viability assays light output follows the ATP content of the culture.
The subject of data set [24] is phospho-AKT in OCI-LY-8 cells. Description: phospho-AKT after BCR crosslinking. It is filed as cell-based. How it is done: Activation of the PI3K pathway is an important component of normal B-cell receptor (BCR) signaling and has been implicated in the pathogenesis of DLBCL. […] There was rapid modulation of phospho-AKT and phospho-PRAS40 by 30 minutes, whereas modulation of phospho-S6 was not detected until after 8 hours.
These biochemical findings indicate a mechanistic rationale for combination of PI3K-δ,γ and BTK inhibition.

Regarding `CC[C@H](Nc1ncnc2[nH]cnc12)c1nc2cccc(F)c2c(=O)n1-c1ccccc1` [GS-1101, (S)-2-(1-(9H-purin-6-ylamino)propyl)-5-fluoro-3-phenylquinazolin-4(3H)-one, reference compound], the “cytotoxicity, sensitivity” value in [1] is given as “resistant”.
Regarding `COc1cccc2c1C(=O)c1c(O)c3c(c(O)c1C2=O)C[C@@](O)(C(=O)CO)C[C@@H]3O[C@H]1C[C@H](N)[C@H](O)[C@H](C)O1` [doxorubicin, reference compound], in data set [2], the “percent inhibition of Loucy cells with dose” value is reported as “different pattern”.
For the compound `C=CC(=O)N1CCC[C@@H](n2nc(-c3ccc(Oc4ccccc4)cc3)c3c(N)ncnc32)C1` [ibrutinib, 1-[(3R)-3-[4-Amino-3-(4-phenoxyphenyl)pyrazolo[3,4-d]pyrimidin-1-yl]piperidin-1-yl]prop-2-en-1-one], the “Synergy Score (growth inhibition)” value in data set [3] was “A1 (A1=0.0001 to <1)”; in data set [4], “A1 (A1=0.0001 to <1)”; in data set [5] it was “A2 (A2=1 to <3)”; in [6] it was “A1 (A1=0.0001 to <1)”; in [7] it was “A2 (A2=1 to <3)”; in data set [8], “A2 (A2=1 to <3)”. Also, the “Synergy Score (growth inhibition)” value is “A2 (A2=1 to <3)” in data set [9]; “A3 (A3=>3)” in data set [10]; “A3 (A3=>3)” in data set [11]; “A1 (A1=0.0001 to <1)” in [12]; “A2 (A2=1 to <3)” in data set [13]; “A3 (A3=>3)” in data set [14]. The “Synergy Score (growth inhibition)” value is “A3 (A3=>3)” in [15]; “A2 (A2=1 to <3)” in data set [16]; “A3 (A3=>3)” in data set [17]; “A3 (A3=>3)” in data set [18]; “A3 (A3=>3)” in data set [19]; “A3 (A3=>3)” in data set [20]. For the same compound, in [21], the “Synergy Score (growth inhibition)” value is given as “A2 (A2=1 to <3)”. Besides, the “Synergy Score (inhibition)” value in [3], in data set [4], in data set [5], in data set [6], in data set [7] and in [8] was “A1 (A1=0.0001 to <1)” throughout. For the same compound, the “Synergy Score (inhibition)” value is “A2 (A2=1 to <3)” in data set [9]; “A2 (A2=1 to <3)” in data set [10]; “A3 (A3=>3)” in data set [11]; “A1 (A1=0.0001 to <1)” in data set [12]; “A2 (A2=1 to <3)” in data set [13]; “A3 (A3=>3)” in data set [14]. For the same compound, the “Synergy Score (inhibition)” value is “A3 (A3=>3)” in data set [15]; “A2 (A2=1 to <3)” in data set [16]; “A3 (A3=>3)” in [17]; “A3 (A3=>3)” in [18]; “A3 (A3=>3)” in [19]; “A1 (A1=0.0001 to <1)” in [20]. The “Synergy Score (inhibition)” value in data set [21] is “A2 (A2=1 to <3)”. Moreover, the “CI50 (growth inhibition)” value was “S (S=0.01 to <0.5)” in data set [5]; “S (S=0.01 to <0.5)” in data set [7]; “U (U=0.7 to <1)” in data set [8]; “S (S=0.01 to <0.5)” in data set [9]; “T (T=0.5 to <0.7)” in data set [10]; “S (S=0.01 to <0.5)” in data set [11]. Further, the “CI50 (growth inhibition)” value in [13] is on record as “S (S=0.01 to <0.5)”; in [14], “S (S=0.01 to <0.5)”; in [15], “S (S=0.01 to <0.5)”; in data set [16], “S (S=0.01 to <0.5)”; in data set [17], “S (S=0.01 to <0.5)”; in [18] it was “T (T=0.5 to <0.7)”. For the same compound, the figures for the “CI50 (growth inhibition)” value in data set [19], in data set [20] and in data set [21] were “S (S=0.01 to <0.5)”, “S (S=0.01 to <0.5)” and “U (U=0.7 to <1)”, respectively. Besides, the “CI50 (inhibition)” value in [5] is “T (T=0.5 to <0.7)”; in data set [8] it was “S (S=0.01 to <0.5)”; in data set [9] it was “S (S=0.01 to <0.5)”; in data set [10], “S (S=0.01 to <0.5)”; in data set [11], “S (S=0.01 to <0.5)”; in data set [13], “T (T=0.5 to <0.7)”. Besides, the “CI50 (inhibition)” value in [14], in data set [15], in data set [16], in data set [17], in data set [18] and in [19] was “S (S=0.01 to <0.5)” each time. Besides, in data set [21], the “CI50 (inhibition)” value is given as “W (W=≧1)”. Further, in [22], the “inhibition of phospho-BTK” value is “robust inhibition”. Also, the “cell viability, monotherapy” value in data set [23] is “dose dependently inhibited viability”. Besides, the “inhibition of the increase in phospho-AKT” value in [24] is given as “only partially inhibited”.

For the origin of these results see patent US20160113932A1, “TREATMENT OF CANCERS USING PI3 KINASE ISOFORM MODULATORS” (INFINITY PHARMACEUTICALS, INC., priority 2013, published 2016).
